This is an account of results in the OligoGym collection.

The data set has as its target HBV. The following applies: ASO.

Where “and” joins values, the source holds several entries; their conditions need not be identical. Equal entries are not always repeated. HELM strings list units from the 5' end as sugar, base in round brackets, then linkage (d deoxyribose, r ribose, m 2'-O-methyl, p phosphodiester). Methylation of C is not given here. [moe] = 2'-O-(2-methoxyethyl) (MOE); [cEt] = constrained ethyl (cEt); [sp] = phosphorothioate linkage

With “RNA1{[moe](C)[sp].[cEt](A)[sp].[cEt](A)[sp].d(T)[sp].d(T)[sp].d(T)[sp].d(A)[sp].d(T)[sp].d(G)[sp].d(C)[sp].d(C)[sp].d(T)[sp].d(A)[sp].[cEt](C)[sp].[cEt](A)[sp].[moe](G)}$$$$V2.0”, the target mRNA inhibition (HepG2, 0.07 µM) was 49% and 41%. The same measure, in the same setting: the value for “RNA1{[moe](C)[sp].[cEt](A)[sp].d(A)[sp].d(T)[sp].d(T)[sp].d(T)[sp].d(A)[sp].d(T)[sp].d(G)[sp].d(C)[sp].d(C)[sp].d(T)[sp].[cEt](A)[sp].[moe](C)[sp].[cEt](A)[sp].[moe](G)}$$$$V2.0” was 35% and 34%; that for “RNA1{[moe](C)[sp].[cEt](T)[sp].d(G)[sp].d(G)[sp].d(A)[sp].d(G)[sp].d(C)[sp].d(C)[sp].d(A)[sp].d(C)[sp].d(C)[sp].d(A)[sp].[cEt](G)[sp].[moe](C)[sp].[cEt](A)[sp].[moe](G)}$$$$V2.0” was 56%. Still for that read-out and setting: the value for “RNA1{[moe](C)[sp].[moe](A)[sp].[moe](A)[sp].[moe](T)[sp].[moe](T)[sp].[moe](T)[sp].d(A)[sp].d(T)[sp].d(G)[sp].d(C)[sp].d(C)[sp].d(T)[sp].d(A)[sp].d(C)[sp].d(A)[sp].[moe](G)[sp].[moe](C)}$$$$V2.0” was 26% and 22%; that for “RNA1{[moe](C)[sp].[moe](A)[sp].[moe](A)[sp].[moe](T)[sp].[moe](T)[sp].d(T)[sp].d(A)[sp].d(T)[sp].d(G)[sp].d(C)[sp].d(C)[sp].d(T)[sp].d(A)[sp].d(C)[sp].[moe](A)[sp].[moe](G)}$$$$V2.0” was 24% and 11%; that for “RNA1{[moe](C)[sp].[moe](A)[sp].[moe](A)[sp].[moe](T)[sp].d(T)[sp].d(T)[sp].d(A)[sp].d(T)[sp].d(G)[sp].d(C)[sp].d(C)[sp].d(T)[sp].d(A)[sp].[moe](C)[sp].[moe](A)[sp].[moe](G)}$$$$V2.0” was 19% and 13%.

For “RNA1{[moe](C)[sp].[moe](A)[sp].[moe](A)[sp].d(T)[sp].d(T)[sp].d(T)[sp].d(A)[sp].d(T)[sp].d(G)[sp].d(C)[sp].d(C)[sp].d(T)[sp].[moe](A)[sp].[moe](C)[sp].[moe](A)[sp].[moe](G)[sp].[moe](C)}$$$$V2.0”, the target mRNA inhibition (HepG2, 0.07 µM) was 33% and 41%.

With “RNA1{[moe](C)[sp].[moe](A)[sp].[moe](A)[sp].d(T)[sp].d(T)[sp].d(T)[sp].d(A)[sp].d(T)[sp].d(G)[sp].d(C)[sp].d(C)[sp].d(T)[sp].[moe](A)[sp].[moe](C)[sp].[moe](A)[sp].[moe](G)}$$$$V2.0”, for the setting “HepG2, 0.07 µM”, the target mRNA inhibition was 17% and 22%.

With “RNA1{[moe](C)[sp].[moe](A)[sp].[moe](C)[sp].[moe](T)[sp].[moe](A)[sp].d(G)[sp].d(T)[sp].d(A)[sp].d(A)[sp].d(A)[sp].d(C)[sp].d(T)[sp].d(G)[sp].d(A)[sp].[moe](G)[sp].[moe](C)[sp].[moe](C)}$$$$V2.0”, the target mRNA inhibition (HepG2, 0.07 µM) was 71% and 62%. On the same count and under the same terms, the same measure for “RNA1{[moe](C)[sp].[moe](A)[sp].[moe](C)[sp].[moe](T)[sp].d(A)[sp].d(G)[sp].d(T)[sp].d(A)[sp].d(A)[sp].d(A)[sp].d(C)[sp].d(T)[sp].d(G)[sp].[moe](A)[sp].[moe](G)[sp].[moe](C)[sp].[moe](C)}$$$$V2.0”: 61% and 54%; for “RNA1{[moe](C)[sp].[moe](A)[sp].d(A)[sp].d(T)[sp].d(T)[sp].d(T)[sp].d(A)[sp].d(T)[sp].d(G)[sp].d(C)[sp].d(C)[sp].[moe](T)[sp].[moe](A)[sp].[moe](C)[sp].[moe](A)[sp].[moe](G)[sp].[moe](C)}$$$$V2.0”: 53% and 46%; for “RNA1{[moe](C)[sp].[moe](A)[sp].d(G)[sp].d(A)[sp].d(G)[sp].d(G)[sp].d(T)[sp].d(G)[sp].d(A)[sp].d(A)[sp].d(G)[sp].[moe](C)[sp].[moe](G)[sp].[moe](A)[sp].[moe](A)[sp].[moe](G)[sp].[moe](T)}$$$$V2.0”: 61%. The same measure, in the same setting: the same measure for “RNA1{[moe](C)[sp].[moe](C)[sp].[moe](A)[sp].[moe](A)[sp].[moe](T)[sp].d(T)[sp].d(T)[sp].d(A)[sp].d(T)[sp].d(G)[sp].d(C)[sp].d(C)[sp].d(T)[sp].d(A)[sp].[moe](C)[sp].[moe](A)}$$$$V2.0”: 15% and 6%; for “RNA1{[moe](C)[sp].[moe](C)[sp].[moe](G)[sp].[moe](C)[sp].[moe](A)[sp].[moe](G)[sp].d(T)[sp].d(A)[sp].d(T)[sp].d(G)[sp].d(G)[sp].d(A)[sp].d(T)[sp].d(C)[sp].d(G)[sp].[moe](G)[sp].[moe](C)}$$$$V2.0”: 90% and 66%; for “RNA1{[moe](C)[sp].[moe](C)[sp].[moe](G)[sp].[moe](C)[sp].[moe](A)[sp].d(G)[sp].d(T)[sp].d(A)[sp].d(T)[sp].d(G)[sp].d(G)[sp].d(A)[sp].d(T)[sp].d(C)[sp].[moe](G)[sp].[moe](G)}$$$$V2.0”: 75% and 71%. On the same count and under the same terms, the value for “RNA1{[moe](C)[sp].[moe](C)[sp].[moe](G)[sp].d(C)[sp].d(A)[sp].d(G)[sp].d(T)[sp].d(A)[sp].d(T)[sp].d(G)[sp].d(G)[sp].d(A)[sp].d(T)[sp].[cEt](C)[sp].[cEt](G)[sp].[cEt](G)}$$$$V2.0” was 72% and 79%. Regarding “RNA1{[moe](C)[sp].[moe](C)[sp].d(A)[sp].d(C)[sp].d(T)[sp].d(G)[sp].d(A)[sp].d(A)[sp].d(C)[sp].d(A)[sp].d(A)[sp].[moe](A)[sp].[moe](T)[sp].[moe](G)[sp].[moe](G)[sp].[moe](C)}$$$$V2.0”, the target mRNA inhibition (HepG2, 0.0092593 µM) was 8%; the target mRNA inhibition (HepG2, 0.0277778 µM) was 27%; the target mRNA inhibition (HepG2, 0.07 µM) is 74% and 70%; the target mRNA inhibition (HepG2, 0.0833333 µM) worked out at 54%; the target mRNA inhibition (HepG2, 0.25 µM) came to 76%. As for “RNA1{[moe](C)[sp].[moe](G)[sp].[moe](A)[sp].d(A)[sp].d(C)[sp].d(C)[sp].d(A)[sp].d(C)[sp].d(T)[sp].d(G)[sp].d(A)[sp].d(A)[sp].[moe](C)[sp].[moe](A)[sp].[moe](A)[sp].[moe](A)[sp].[moe](T)}$$$$V2.0”, the target mRNA inhibition (HepG2, 0.07 µM) is 60% and 50%. Same read-out and setting: the same measure for “RNA1{[moe](C)[sp].[moe](G)[sp].[moe](A)[sp].d(A)[sp].d(C)[sp].d(C)[sp].d(A)[sp].d(C)[sp].d(T)[sp].d(G)[sp].d(A)[sp].d(A)[sp].d(C)[sp].[cEt](A)[sp].[cEt](A)[sp].[cEt](A)}$$$$V2.0”: 41% and 54%. In the case of “RNA1{[moe](C)[sp].[moe](G)[sp].[moe](C)[sp].[moe](A)[sp].[moe](G)[sp].[moe](T)[sp].d(A)[sp].d(T)[sp].d(G)[sp].d(G)[sp].d(A)[sp].d(T)[sp].d(C)[sp].d(G)[sp].d(G)[sp].[moe](C)[sp].[moe](A)}$$$$V2.0”, the target mRNA inhibition was 10% (HepG2, 0.0092593 µM); 35% (HepG2, 0.0277778 µM); 83% and 70% (HepG2, 0.07 µM); 44% (HepG2, 0.0833333 µM); 76% (HepG2, 0.25 µM).

With “RNA1{[moe](C)[sp].[moe](G)[sp].[moe](C)[sp].d(A)[sp].d(G)[sp].d(T)[sp].d(A)[sp].d(T)[sp].d(G)[sp].d(G)[sp].d(A)[sp].d(T)[sp].[moe](C)[sp].[moe](G)[sp].[moe](G)[sp].[moe](C)}$$$$V2.0”, where the note is “HepG2, 0.07 µM”, the target mRNA inhibition is 84% and 68%.

Take “RNA1{[moe](C)[sp].[moe](G)[sp].[moe](C)[sp].d(A)[sp].d(G)[sp].d(T)[sp].d(A)[sp].d(T)[sp].d(G)[sp].d(G)[sp].d(A)[sp].d(T)[sp].d(C)[sp].[cEt](G)[sp].[cEt](G)[sp].[cEt](C)}$$$$V2.0”: the target mRNA inhibition reads like this: (HepG2, 0.0092593 µM) 0%; (HepG2, 0.0277778 µM) 50%; (HepG2, 0.07 µM) 85% and 84%; (HepG2, 0.0833333 µM) 74%; (HepG2, 0.25 µM) 81%.

For the substance “RNA1{[moe](C)[sp].[moe](G)[sp].[moe](G)[sp].[moe](G)[sp].[moe](C)[sp].d(A)[sp].d(A)[sp].d(C)[sp].d(A)[sp].d(T)[sp].d(A)[sp].d(C)[sp].d(C)[sp].d(T)[sp].[moe](T)[sp].[moe](G)}$$$$V2.0”, for the setting “HepG2, 0.07 µM”, the target mRNA inhibition is 54% and 53%. Same read-out and setting: the value for “RNA1{[moe](C)[sp].[moe](G)[sp].[moe](T)[sp].[moe](G)[sp].[moe](C)[sp].d(A)[sp].d(G)[sp].d(A)[sp].d(G)[sp].d(G)[sp].d(T)[sp].d(G)[sp].d(A)[sp].d(A)[sp].[moe](G)[sp].[moe](C)}$$$$V2.0” was 59% and 51%; that for “RNA1{[moe](C)[sp].[moe](G)[sp].d(C)[sp].d(A)[sp].d(G)[sp].d(T)[sp].d(A)[sp].d(T)[sp].d(G)[sp].d(G)[sp].d(A)[sp].[moe](T)[sp].[moe](C)[sp].[moe](G)[sp].[moe](G)[sp].[moe](C)[sp].[moe](A)}$$$$V2.0” was 82% and 80%; that for “RNA1{[moe](C)[sp].[moe](G)[sp].d(T)[sp].d(G)[sp].d(C)[sp].d(A)[sp].d(G)[sp].d(A)[sp].d(G)[sp].d(G)[sp].d(T)[sp].[moe](G)[sp].[moe](A)[sp].[moe](A)[sp].[moe](G)[sp].[moe](C)}$$$$V2.0” was 51% and 60%. Take “RNA1{[moe](C)[sp].[moe](T)[sp].[moe](A)[sp].[moe](G)[sp].[moe](T)[sp].d(A)[sp].d(A)[sp].d(A)[sp].d(C)[sp].d(T)[sp].d(G)[sp].d(A)[sp].d(G)[sp].d(C)[sp].[moe](C)[sp].[moe](A)}$$$$V2.0”: the target mRNA inhibition (HepG2, 0.07 µM) is 71% and 63%.

For the substance “RNA1{[moe](C)[sp].[moe](T)[sp].[moe](G)[sp].[moe](G)[sp].d(A)[sp].d(G)[sp].d(C)[sp].d(C)[sp].d(A)[sp].d(C)[sp].d(C)[sp].d(A)[sp].d(G)[sp].[moe](C)[sp].[moe](A)[sp].[moe](G)}$$$$V2.0”, the target mRNA inhibition (HepG2, 0.07 µM) was 57% and 60%.

In the case of “RNA1{[moe](C)[sp].[moe](T)[sp].[moe](G)[sp].d(G)[sp].d(A)[sp].d(G)[sp].d(C)[sp].d(C)[sp].d(A)[sp].d(C)[sp].d(C)[sp].d(A)[sp].[moe](G)[sp].[moe](C)[sp].[moe](A)[sp].[moe](G)}$$$$V2.0”, the target mRNA inhibition (HepG2, 0.07 µM) was 42% and 38%. For “RNA1{[moe](C)[sp].[moe](T)[sp].[moe](G)[sp].d(G)[sp].d(A)[sp].d(G)[sp].d(C)[sp].d(C)[sp].d(A)[sp].d(C)[sp].d(C)[sp].d(A)[sp].d(G)[sp].[cEt](C)[sp].[cEt](A)[sp].[cEt](G)}$$$$V2.0”, the target mRNA inhibition (HepG2, 0.07 µM) worked out at 60%.
